Legend:
[1] = Glass transition temperature (Tg) by differential scanning calorimetry; conditions: DSC, average of two runs
Text: The acetylated polyol was recovered by evaporating off the solvent and the derivative characterized by nuclear magnetic resonance spectroscopy (NMR) and differential scanning calorimetry (DSC).
Tgs were obtained as the average of two runs.

[2] = Release of model active from glass layers monitored by absorbance at 510 nm; assay type: physicochemical; conditions: aqueous 5% Tween 20, constant agitation
Text: Disperse Red 1 was incorporated as a model active in a glass of lactitol nonaacetate (ratio 0.1/100 g/g) by melt mixing. The release of model active from 0.5 mm and 3 mm thickness layers of glass, into either water or an aqueous solution of 5% Tween 20, was monitored by absorbance at 510 nm.

time to complete release of active ([2]; 0.5 mm thickness glass) [h]	time to complete release of active ([2]; 3 mm thickness glass) [h]	Compound	Tg [1] [°C]
		α-D-glucopyranosyl-1→6-sorbitol nonaacetate [GPS nonaacetate]	17.4
12	72	CCN(CCO)c1ccc(N=Nc2ccc([N+](=O)[O-])cc2)cc1 [Disperse red 1]	
		α-D-glucopyranosyl-1→6-mannitol nonaacetate [GPM nonaacetate]	35
